Source: patent US20230365546A1, “5-SUBSTITUTED INDOLE 3-AMIDE DERIVATIVES, PREPARATION METHOD AND USE THEREOF” (ORIGIANT PHARMACEUTICAL CO., LTD, priority 2020, published 2023)
pEC50, pIC50: −log10 of the molar value.

How the values were obtained:
[1] = target: RIPK1 (Homo sapiens (Human), UniProt Q13546); assay: In vitro kinase assay (Eurofins Kinase Profiler), IC50; format: biochemical; details: 0.001-10 μM, read-out: RIPK 1 (IC50)
Procedure: In vitro kinase assays were conducted using Kinase Profiler services provided by Eurofins. The experimental method was as follows: the small molecule compound to be tested (0.001-10 μM), the protein kinase to be tested were incubated with a buffer containing substrate, 10 mM magnesium acetate, and [γ-^33P-ATP], the reaction was started by adding Mg\TPmix, after incubation for a period of time at room temperature, a 3% phosphate solution was added to the buffer to stop the reaction. Subsequently, 10 μL of the reaction mixture was quantitatively pipetted onto P30 filter paper, which was washed three times with 75 mM phosphate solution and then once with methanol. The P30 filter paper was air-dried and scintillation fluid was added for scintillation counting.

[2] = tested on: HT-29 cells; assay: Protection against programmed necrosis of HT-29 cells (TNF α/Smac mimetic/Z-VAD-FMK, CCK8); format: cell-based; details: Homo sapiens, TNF α/Smac mimetic/Z-VAD-FMK induced 24 h, CCK8, read-out: HT-29 (EC50)
Procedure: In vitro protection against programmed necrosis of HT-29 cells was conducted by ourselves.
DMEM medium was purchased from Gibco Inc., penicillin and streptomycin were purchased from HyClone Inc., TNF α was purchased from PeproTech Inc., Smac mimetic and Z-VAD-FMK were purchased from Selleck Inc., CCK8 was purchased from Medchem Express Inc.
HT-29 cells (colon cancer cells) were cultured in DMEM+10% FBS+Penicillin/Streptomycin medium. During the experiments, HT-29 cells in logarithmic growth phase were harvested, seeded in a 96-well plate at specific numbers per well (typically 8×10^3 cells/well of adherent cells) and cultured overnight in a 37° C., 5% CO2 cell culture incubator. The next day, the compounds to be tested were diluted with culture medium to the corresponding concentrations and added into the corresponding wells of a 96-well plate, with 3 replicate wells for each sample, and a Vehicle control group and a blank Control group containing only culture medium were set at the same time. […] The absorbance was measured at 495 nm wavelength using a microplate reader, and the protection rate of the drug on the cells necrosis was calculated according to the following formula:
Protection rate of cell necrosis=[(X−C0)/(C−C0)]×100%
Wherein, C, C0, and X represent the mean absorbance values of the Vehicle control group, Blank control group and Drug treatment group, respectively.

Chain of RIPK1 (Q13546 whole entry): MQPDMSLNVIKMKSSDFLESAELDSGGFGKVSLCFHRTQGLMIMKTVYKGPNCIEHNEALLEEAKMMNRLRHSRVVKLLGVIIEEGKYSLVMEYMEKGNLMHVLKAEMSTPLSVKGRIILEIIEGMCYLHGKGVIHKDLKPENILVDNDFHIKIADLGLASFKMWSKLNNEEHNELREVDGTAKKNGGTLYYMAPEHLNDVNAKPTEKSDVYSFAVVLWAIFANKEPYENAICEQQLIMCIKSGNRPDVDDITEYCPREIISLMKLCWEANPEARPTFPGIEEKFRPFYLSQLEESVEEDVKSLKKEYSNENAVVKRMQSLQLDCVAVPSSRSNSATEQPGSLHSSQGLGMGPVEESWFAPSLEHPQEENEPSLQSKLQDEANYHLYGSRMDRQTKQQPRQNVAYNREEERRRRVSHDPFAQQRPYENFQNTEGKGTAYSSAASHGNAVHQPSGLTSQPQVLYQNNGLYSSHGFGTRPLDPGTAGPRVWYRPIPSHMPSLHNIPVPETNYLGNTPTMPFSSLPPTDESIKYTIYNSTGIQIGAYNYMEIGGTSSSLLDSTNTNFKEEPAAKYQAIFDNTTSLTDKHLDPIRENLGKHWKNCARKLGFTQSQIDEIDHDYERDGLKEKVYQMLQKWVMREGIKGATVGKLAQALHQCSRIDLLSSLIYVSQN

SMILES	pIC50 [1]	pEC50 [2]
C[C@H](NC(=O)c1c[nH]c2ccc(-c3ccc4nc(NC(=O)C(F)(F)F)sc4c3)cc12)c1cccc(F)c1 [Compound 52]	6.00 to 7.00	7.00 to 8.00
C[C@H](NC(=O)c1cn(C)c2ccc(-c3ccc4nc(NC(=O)C5CC5)nn4c3)cc12)c1cccc(F)c1 [Compound 90]	6.00 to 7.00	–
COCCn1cc(C(=O)N[C@@H](C)c2cccc(F)c2)c2cc(-c3ccc4c(NC(=O)C5CC5)n[nH]c4c3)ccc21 [Compound 116]	8.00 to 9.00	7.00 to 8.00
CC(C)C(=O)Nc1nc2cc(-c3cnc4[nH]cc(C(=O)N[C@@H](C)c5cccc(F)c5)c4c3)ccn2n1 [Compound 157]	7.00 to 8.00	8.00 to 9.00
O=C(NCc1ccc(F)c(F)c1)c1c[nH]c2ccc(-c3ccc4nc(NC(=O)C5CC5)sc4c3)cc12 [Compound 2]	7.00 to 8.00	6.00 to 7.00
CC(NC(=O)c1cn(C)c2ccc(-c3ccn4nc(NC(=O)C5CC5)nc4c3)cc12)c1ccc(F)c(F)c1 (centres unmarked) [Compound 167]	7.00 to 8.00	7.00 to 8.00
CC(C)Cn1cc(C(=O)N[C@@H](C)c2cccc(F)c2)c2cc(-c3ccc4c(NC(=O)C5CC5)n[nH]c4c3)ccc21 [Compound 115]	8.00 to 9.00	7.00 to 8.00
COc1ccc([C@H](C)NC(=O)c2cn(C)c3ccc(-c4ccn5nc(NC(=O)C(C)C)nc5c4)cc23)cc1 [Compound 133]	7.00 to 8.00	> 9.00
O=C(NCc1ccc(N2CCOCC2)cc1)c1c[nH]c2ccc(-c3ccc4nc(NC(=O)C5CC5)sc4n3)cc12 [Compound 99]	≤ 6.00	≤ 6.00
CC(C)C(=O)Nc1nc2cc(-c3ccc4c(c3)c(C(=O)N[C@H](C)c3ccccn3)cn4C)ccn2n1 [Compound 136]	6.00 to 7.00	7.00 to 8.00
C[C@H](NC(=O)c1cn(C)c2ccc(-c3ccn4nc(NC(=O)C5(F)CC5)nc4c3)cc12)c1cccc(F)c1 [Compound 145]	8.00 to 9.00	> 9.00
CC(C)C(=O)Nc1nc2cc(-c3ccc4c(c3)c(C(=O)NC(C)c3ccc(F)cc3)cn4C)ccn2n1 (centres unmarked) [Compound 130]	7.00 to 8.00	8.00 to 9.00
CC[C@H](NC(=O)c1cn(CC)c2ccc(-c3ccn4nc(NC(=O)C5CC5)nc4c3)cc12)c1ccc(F)cc1 [Compound 199]	8.00 to 9.00	> 9.00
CCn1cc(C(=O)N[C@H](c2ccc(F)cc2)C2CC2)c2cc(-c3ccn4nc(NC(=O)C5CC5)nc4c3)ccc21 [Compound 200]	7.00 to 8.00	> 9.00
CC(C)C(=O)Nc1nc2cc(-c3ccc4c(c3)c(C(=O)N[C@H](C)c3ccc(F)cc3)cn4C)ccn2n1 [Compound 132]	6.00 to 7.00	6.00 to 7.00
O=C(NCc1ccc(F)cc1)c1c[nH]c2ccc(-c3ccc4nc(NC(=O)C5CC5)sc4c3)cc12 [Compound 6]	6.00 to 7.00	7.00 to 8.00
CC(C)C(=O)Nc1nc2cc(-c3ccc4c(c3)c(C(=O)N[C@H](C)c3cccc(Cl)c3)cn4C)ccn2n1 [Compound 126]	7.00 to 8.00	7.00 to 8.00
Cn1cc(CNC(=O)c2c[nH]c3ccc(-c4ccc5nc(NC(=O)C6CC6)sc5c4)cc23)cn1 [Compound 86]	≤ 6.00	≤ 6.00
CC(C)C(=O)Nc1nc2cc(-c3ccc4c(c3)c(C(=O)N[C@@H](C)c3ccccn3)cn4C)ccn2n1 [Compound 137]	7.00 to 8.00	> 9.00
C[C@H](NC(=O)c1c[nH]c2ccc(-c3ccc(NC(=O)C4CC4)nc3)cc12)c1cccc(F)c1 [Compound 41]	6.00 to 7.00	6.00 to 7.00
CC(C)(C)c1ccc(CNC(=O)c2c[nH]c3ccc(-c4ccc5nc(NC(=O)C6CC6)sc5c4)cc23)cc1 [Compound 29]	6.00 to 7.00	6.00 to 7.00
COc1ccc(CNC(=O)c2c[nH]c3ccc(-c4ccc5nc(NC(=O)C6CC6)sc5c4)cc23)cc1 [Compound 1]	7.00 to 8.00	7.00 to 8.00
Cn1cc(C(=O)N[C@H]2CCCc3ccccc32)c2cc(-c3ccc4nc(NC(=O)C5CC5)cn4n3)ccc21 [Compound 188]	6.00 to 7.00	6.00 to 7.00
C[C@H](NC(=O)c1cn(C)c2ccc(-c3ccn4nc(N[C@@H](C)CO)nc4c3)cc12)c1cccc(F)c1 [Compound 196]	7.00 to 8.00	> 9.00
COCC(=O)Nc1nc2ccc(-c3ccc4[nH]cc(C(=O)N[C@@H](C)c5cccc(F)c5)c4c3)cn2n1 [Compound 92]	6.00 to 7.00	6.00 to 7.00
C[C@H](NC(=O)c1cn(C)c2ccc(-c3ccc4c(C(=O)NCC(C)(C)C)c[nH]c4c3)cc12)c1cccc(F)c1 [Compound 119]	8.00 to 9.00	8.00 to 9.00

SMILES	pIC50 [1]	pEC50 [2]
CCCn1cc(C(=O)N[C@@H](C)c2cccc(F)c2)c2cc(-c3ccc4c(NC(=O)C5CC5)n[nH]c4c3)ccc21 [Compound 113]	8.00 to 9.00	8.00 to 9.00
C[C@H](NC(=O)c1cn(C)c2ccc(-c3ccn4nc(NC(=O)N[C@@H](C)CO)nc4c3)cc12)c1cccc(F)c1 [Compound 165]	7.00 to 8.00	> 9.00
C[C@H](NC(=O)c1cn(C)c2ccc(-c3ccn4nc(NC(=O)C5CC5(F)F)nc4c3)cc12)c1cccc(F)c1 (stereo partly drawn) [Compound 142, 5-(2-(2,2-difluorocyclopropane-1-carboxamido)-[1,2,4]triazolo[1,5-a]pyridin-7-yl)-N-((S)-1-(3-fluorophenyl)ethyl)-1-methyl-1H-indole-3-Carboxamide]	7.00 to 8.00	> 9.00
COc1cc(F)ccc1NC(=O)c1c[nH]c2ncc(-c3ccc4nc(NC(=O)C5CC5)sc4c3)cc12 [Compound 60]	≤ 6.00	≤ 6.00
C[C@H](NC(=O)c1cn(C)c2ccc(-c3ccc4c(C(=O)NC5CC5)c[nH]c4c3)cc12)c1cccc(F)c1 [Compound 118]	7.00 to 8.00	8.00 to 9.00
O=C(NCc1cccs1)c1c[nH]c2ccc(-c3ccc4nc(NC(=O)C5CC5)sc4c3)cc12 [Compound 18]	7.00 to 8.00	8.00 to 9.00
CC(C)C(=O)Nc1nc2cc(-c3ccc4c(c3)c(C(=O)NC(C)(C)c3ccccc3)cn4C)ccn2n1 [Compound 123]	7.00 to 8.00	8.00 to 9.00
O=C(NCc1ccccc1C(F)(F)F)c1c[nH]c2ccc(-c3ccc4nc(NC(=O)C5CC5)sc4c3)cc12 [Compound 24]	6.00 to 7.00	7.00 to 8.00
COc1ccc([C@@H](C)NC(=O)c2cn(C)c3ccc(-c4ccn5nc(NC(=O)C(C)C)nc5c4)cc23)cc1 [Compound 134]	≤ 6.00	6.00 to 7.00
O=C(NCc1ccco1)c1c[nH]c2ccc(-c3ccc4nc(NC(=O)C5CC5)sc4c3)cc12 [Compound 17]	7.00 to 8.00	7.00 to 8.00
CC(C)n1cc(C(=O)NCc2cc(F)ccc2F)c2cc(-c3ccc4nc(NC(=O)C5CC5)sc4c3)ccc21 [Compound 56]	7.00 to 8.00	8.00 to 9.00
Nc1ncnn2c(-c3ccc4[nH]nc(C(=O)NCCc5ccc(F)cc5)c4c3)ccc12 [Compound 103]	7.00 to 8.00	6.00 to 7.00
C[C@H](NC(=O)c1c[nH]c2ccc(-c3ccc4nc(NC(=O)C5CCOCC5)sc4c3)cc12)c1cccc(F)c1 [Compound 51]	7.00 to 8.00	7.00 to 8.00
CC(C)C(=O)Nc1nc2cc(-c3ccc4c(c3)c(C(=O)NC(C)c3ccccc3)cn4C)ccn2n1 (centres unmarked) [Compound 105]	7.00 to 8.00	8.00 to 9.00
COc1ccc(NC(=O)c2c[nH]c3ncc(-c4ccc5nc(NC(=O)C6CC6)sc5c4)cc23)cc1OC [Compound 63]	7.00 to 8.00	7.00 to 8.00
C[C@H](NC(=O)c1c[nH]c2ccc(-c3ccc4nc(NC(=O)C5CC5)nn4c3)cc12)c1cccc(F)c1 [Compound 45]	7.00 to 8.00	7.00 to 8.00
O=C(NCc1ccc(N2CCOCC2)cc1)c1c[nH]c2ccc(-c3ccn4nc(NC(=O)C5CC5)nc4c3)cc12 [Compound 97]	≤ 6.00	≤ 6.00
CCn1cc(C(=O)N[C@@H](CF)c2ccc(F)cc2)c2cc(-c3ccn4nc(NC(=O)C5CC5)nc4c3)ccc21 [Compound 212]	8.00 to 9.00	> 9.00
O=C(NCc1cccc(Br)c1)c1c[nH]c2ccc(-c3ccc4nc(NC(=O)C5CC5)sc4c3)cc12 [Compound 23]	6.00 to 7.00	8.00 to 9.00
C[C@H](NC(=O)c1c[nH]c2ccc(-c3ccc4nc(NC(=O)C5CC5)sc4c3)cc12)c1cccc(Cl)c1 [Compound 37]	7.00 to 8.00	8.00 to 9.00
Cn1cc(C(=O)NCc2ccc(F)cc2)c2cc(-c3ccc4nc(NC(=O)C5CC5)sc4c3)ccc21 [Compound 79]	6.00 to 7.00	7.00 to 8.00
[2H]C([2H])([2H])n1cc(C(=O)N[C@@H](CC)c2ccc(F)cc2)c2cc(-c3ccn4nc(NC(=O)C5CC5)nc4c3)ccc21 [Compound 208]	7.00 to 8.00	> 9.00
CC(C)C(=O)Nc1nc2cc(-c3ccc4c(c3)c(C(=O)N[C@@H](C)c3cccc(Cl)c3)cn4C)ccn2n1 [Compound 127]	7.00 to 8.00	> 9.00
C[C@H](NC(=O)c1cn(C)c2ccc(-c3ccc(N4CCOCC4)cc3)cc12)c1cccc(F)c1 [Compound 72]	≤ 6.00	≤ 6.00
C[C@H](NC(=O)c1cn(C)c2ccc(-c3ccc4c(NC(=O)C5CC5)n[nH]c4c3)cc12)c1cccc(F)c1 [Compound 110]	> 9.00	–
O=C(NCc1ccccc1)c1c[nH]c2ccc(-c3ccc4nc(NC(=O)C5CC5)sc4c3)cc12 [Compound 27]	–	7.00 to 8.00
